According to US9873878B2, “Compositions and methods for use in treating silicosis and lung cancer” (University of Louisville Research Foundation, Inc., priority 2015, dated 2018):

System: RAW264.7 cells
Experiment: CS-induced LTB4 production in RAW264.7 culture supernatants (LTB4 EIA)
Format: cell-based
Conditions: RAW264.7 cells pre-treated with 10 μM Zileuton for 1 h, then 120 μg/cm^2 CS for 6 h
Protocol: FIG. 10C depicts LTB4 production by cells in vitro, measured in culture supernatants of RAW264.7 cells exposed to 120 μg/cm^2 CS for 6 h in presence of 5-LO inhibitor.
LKR13 and RAW264.7cells were cultured in DMEM containing 10% FBS. For CS stimulation assays, 0.3 million cells were plated per well of 12-well tissue culture dishes in 400 μl of 1% FBS containing medium. The cells were stimulated for 6 h with 120 μg/cm^2 of CS. Whenever indicated RAW264.7 cells were pre-treated with 10 μM Zileuton (5-LO inhibitor) for 1 h.
Subcutaneous tumors were homogenized in 500 ul 1×PBS buffer containing 10 uM Indomethacin using Omni GLH general homogenizer. The homogenates were centrifuged at 14000 g for 10 min and LTB4 levels in the supernatants were quantified. The LTB4 levels were normalized to the amount of protein in the supernatants measured by Themo Sceintific Pierce BCA protein assay kit following manufacturer's instructions. LTB4 in the tumor homogenate supernatant was expressed as pg/mg of protein. LTB4 in cell culture supernatants, BALF, air pouch lavage and subcutaneous tumors was measured using LTB4 EIA Kit (Cayman Chemical) according to the manufacturer's instructions. IL-1β in cell culture supernatants was measured using Mouse IL-1β ELISA MAX™ Standard Kit (Biolegend) according to the manufacturer's instructions.

## CC(c1cc2ccccc2s1)N(O)C(N)=O (stereo not shown) [Zileuton]
  LTB4 production by CS activation: completely blocked
